These results are taken from ChEMBL document CHEMBL5537211, “Synthesis and Antifungal Activity of Stereoisomers of Mefloquine Analogs” (2024).

The MIC is the smallest concentration in the dilution series that meets the test's criterion for growth inhibition.

Values after ≈ are worked out from the molar mass of the structure shown.

What all share (format): functional
In assay [1] the test system is Cryptococcus neoformans. Kind of assay: Antifungal activity against Cryptococcus neoformans H99 assessed as fungal growth inhibition incubated for 72 hrs by CLSI protocol based microbroth dilution assay. (In general: Broth dilution looks for growth in wells or tubes with falling amounts of substance.)
Assay [2] concerns Candida albicans. Kind of assay: Antifungal activity against Candida albicans SC5314 assessed as fungal growth inhibition incubated for 24 hrs by CLSI protocol based microbroth dilution assay.
In assay [3] the test system is Candida albicans. Kind of assay: Antifungal activity against Candida albicans by CLSI M27-A3 protocol based absorbance assay.
Assay [4] relates to Cryptococcus neoformans. Kind of assay: Antifungal activity against Cryptococcus neoformans by CLSI M27-A3 protocol based absorbance assay.
Assay [5] deals with Candida albicans. Kind of assay: Antifungal activity against Candida albicans.
The subject of assay [6] is Cryptococcus neoformans. As to the kind of experiment: Antifungal activity against Cryptococcus neoformans.
Assay [7] can be described thus: Selectivity ratio of MIC for antifungal activity against Candida albicans SC5314 to MIC for antifungal activity against Cryptococcus neoformans H99.

As for `O[C@H](c1cc(-c2ccc(Cl)cc2)nc2c(Cl)cccc12)[C@@H]1CCCCN1`, the MIC came out at 1 µg/mL (≈ 2.58 µM) with Cryptococcus neoformans [1] and 4 µg/mL (≈ 10.3 µM) in the assay on Candida albicans [2].

On to `O[C@@H](c1cc(-c2ccc(Cl)cc2)nc2c(Cl)cccc12)[C@@H]1CCCCN1`, for which the MIC is 2 µg/mL (≈ 5.16 µM) in the assay with Cryptococcus neoformans [1] and 8 µg/mL (≈ 20.7 µM) in the assay on Candida albicans [2].

As to `O[C@H](c1cc(-c2ccc(Cl)cc2)nc2c(Cl)cccc12)[C@H]1CCCCN1`, the MIC with Cryptococcus neoformans [1] came to 2 µg/mL (≈ 5.16 µM); in the assay with Candida albicans [2] it was 8 µg/mL (≈ 20.7 µM).

`O[C@@H](c1cc(-c2ccc(Cl)cc2)nc2c(Cl)cccc12)[C@H]1CCCCN1`: the MIC is 1 µg/mL (≈ 2.58 µM) in the assay on Cryptococcus neoformans [1] and 4 µg/mL (≈ 10.3 µM) with Candida albicans [2].

Regarding `OC(c1cc(-c2ccc(Cl)cc2)nc2c(Cl)cccc12)C1CCCCN1` (racemic), the MIC in the assay with Candida albicans [3] worked out at 4 µg/mL (≈ 10.3 µM); against Cryptococcus neoformans [4], 1 µg/mL (≈ 2.58 µM); in the assay with Cryptococcus neoformans [1], 2 µg/mL (≈ 5.16 µM); with Candida albicans [2], 8 µg/mL (≈ 20.7 µM).

Regarding `Cl.O[C@@H](c1cc(-c2ccc(Cl)cc2)nc2ccccc12)[C@H]1CCCCN1` (racemic), the MIC was 8 µg/mL in the assay with Cryptococcus neoformans [1] and 16 µg/mL in the assay with Candida albicans [2].

`OC(c1cc(C2CC3CCC2CC3)nc2c(Cl)cc(Cl)cc12)C1CCCCN1` (racemic): the MIC was 1.5 µg/mL (≈ 3.58 µM) against Candida albicans [5] and 0.4 µg/mL (≈ 0.954 µM) in the assay with Cryptococcus neoformans [6].

For the molecule `Cl.O[C@@H](c1cc(-c2ccc(Cl)cc2)nc2ccccc12)[C@@H]1CCCCN1` (racemic), the MIC in the assay on Cryptococcus neoformans [1] came out at 16 µg/mL; in the assay on Candida albicans [2] it was 64 µg/mL.

As for `O[C@@H](c1cc(C(F)(F)F)nc2c(C(F)(F)F)cccc12)[C@H]1CCCCN1` (racemic) [(S,R)-MEFLOQUINE], the minimal inhibitory concentration (MIC) in the assay on Candida albicans [5] is > 128 µg/mL; with Cryptococcus neoformans [1], 16 µg/mL (≈ 42.3 µM); with Cryptococcus neoformans [6], 32 µg/mL (≈ 84.6 µM); in the assay with Candida albicans [2], 128 µg/mL (≈ 338 µM). The Selectivity ratio in assay [7] came to 8.

Consider `OC(Cn1cncn1)(Cn1cncn1)c1ccc(F)cc1F` [FLUCONAZOLE], for which the results for the MIC with Cryptococcus neoformans [1] and in the assay on Candida albicans [2] were 2 µg/mL (≈ 6.53 µM) and ≤ 0.125 µg/mL, respectively.
